{"source": "patent US20250332143A1", "about": "“COMPOSITION COMPRISING ALOX5 INHIBITOR FOR PREVENTING OR TREATING SARCOPENIA” (PLUTO Inc., priority 2022, published 2025)", "key": {"human myotubes": {"test_system": "human myotubes", "assay": "Dexamethasone-induced atrophy of human skeletal myotubes, H&E, diameter", "format": "cell-based", "conditions": "dexamethasone co-treatment", "protocol": "Human-derived myoblasts were purchased from Thermo-Fisher Scientific (USA). Myoblasts were thawed using a water bath, centrifuged at 180 g for 5 min at room temperature, and washed with 20 mL DM. Myoblasts were then resuspended in DM and seeded in a 12-well plate at a density of 4.8×10^4 cells/well. After 48 hours, myoblasts were treated with compounds of interest for 24 hours. Myotubes were stained with H&E. After light microscopy analysis of DIC captured images (Olympus CKX41), myotubes were measured using ImageJ 1.48 software (National Institutes of Health, USA)."}, "[1]": {"test_system": "Dex-treated C2C12 myotubes", "assay": "SUNSET assay of protein synthesis in Dex-treated myotubes", "format": "cell-based, mouse", "protocol": "C2C12 murine skeletal muscle myoblasts were obtained from Koram Biotech (Republic of Korea). The cells were maintained in DMEM growth medium supplemented with 10% FBS, 1% penicillin, and streptomycin. When myoblasts proliferated to approximately 90%, they were differentiated into muscle fibers by treating them with DMEM differentiation medium supplemented with 2% HS, 1% penicillin, and streptomycin for 96 hours. Differentiated muscle fibers were treated with 10 μM Dex for 24 hours to induce sarcopenia. To evaluate the degree of differentiation of muscle cells, differentiating myoblasts were treated with the corresponding compound in differentiation medium for 24 or 48 hours. The concentration of intracellular protein was measured using the Bradford assay (Bio-Rad, USA, CA), and electrophoresis was performed by loading on 10% and 12% polyacrylamide gels. Afterwards, the separated proteins were transferred to a PVDF membrane, and the primary antibody used was diluted 1:1000 in TBS-T containing 5% skim milk and incubated overnight at 4° C. Secondary antibodies were diluted 1:2000 and incubated for 35 minutes at room temperature (RT). Band intensity was measured using ImageJ 1.52 software (National Institutes of Health, USA), and intracellular protein was normalized to α-tubulin."}, "[2]": {"test_system": "Dex-treated C2C12 myotubes", "assay": "Dex-induced myotube atrophy, myosin heavy chain immunostaining, myotube diameter", "format": "cell-based, mouse", "conditions": "10 μM Dex 24 h", "protocol": "(§1) C2C12 murine skeletal muscle myoblasts were obtained from Koram Biotech (Republic of Korea). The cells were maintained in DMEM growth medium supplemented with 10% FBS, 1% penicillin, and streptomycin. When myoblasts proliferated to approximately 90%, they were differentiated into muscle fibers by treating them with DMEM differentiation medium supplemented with 2% HS, 1% penicillin, and streptomycin for 96 hours. Differentiated muscle fibers were treated with 10 μM Dex for 24 hours to induce sarcopenia. To evaluate the degree of differentiation of muscle cells, differentiating myoblasts were treated with the corresponding compound in differentiation medium for 24 or 48 hours.\nMuscle fibers were stained using immunochemical staining using myosin heavy chain antibody. Specifically, the muscle fibers were rinsed three times with PBS and then fixed with a 3.7% formaldehyde solution. After rinsing with PBS, a transparency process was performed with 0.2% TritonX-100 solution, and additional rinsing was performed with PBS. They were blocked with 1% bovine serum albumin solution (1% BSA in PBS-T) and incubated with primary antibody overnight at 4° C. After washing with PBS, the secondary antibody was treated for 1 hour. Afterwards, the myotubes were counterstained with 1 μM DAPI in PBS. Fluorescence images of stained myotubes in five different areas were obtained using a DMI 3000 B microscope (Leica, Germany) and analyzed using ImageJ 1.52 software (National Institutes of Health, Bethesda, MD, USA). Myotubes were classified as myosin heavy chain positive cells containing four or more nuclei, and the diameter of muscle fibers containing four or more nuclei was measured."}, "Alox5": {"test_system": "Alox5", "assay": "Alox5 expression in Dex-treated myotubes (qPCR, Western blot)", "format": "cell-based, mouse", "conditions": "qPCR and Western blotting", "protocol": "as §1\nThe concentration of intracellular protein was measured using the Bradford assay (Bio-Rad, USA, CA), and electrophoresis was performed by loading on 10% and 12% polyacrylamide gels. […] Band intensity was measured using ImageJ 1.52 software (National Institutes of Health, USA), and intracellular protein was normalized to α-tubulin.\nFor quantitative real-time PCR, transcript levels of genes of interest were analyzed using the StepOnePlus real-time PCR system (Applied Biosystems, UK). […] Denaturation was performed at 95° C. for 15 s, annealing was performed at 60° C. for 1 min, and extension was performed at 72° C. for 20 s with fluorescence detection at 72° C. after each cycle. […]"}}}
{"compound": "CC(C)OC(=O)C(C(=O)OC(C)C)=C1SC=CS1", "note": "[malotilate, Malotilate]", "values": [{"measurement": "atrophy of human myotubes", "setting": "human myotubes; 24 hours", "result": "can prevent atrophy"}, {"measurement": "mean myotube diameter", "setting": "human myotubes; human myotubes", "result": "increased"}, {"measurement": "proportion of myotubes of larger size", "setting": "human myotubes; human myotubes", "result": "greater proportion"}, {"measurement": "total protein synthesis", "setting": "[1]", "result": "restored"}, {"measurement": "diameter of muscle fibers (C2C12 myotubes)", "setting": "[2]; zileuton 10 µM, wedelolactone 20 μM (FIGS. 2, 3)", "result": "recovered"}, {"measurement": "myotube atrophy in Dex-treated myotubes", "setting": "[2]; C2C12 myotubes", "result": "inhibited the effect of Dex on myotube atrophy"}, {"measurement": "Alox5 expression", "setting": "Alox5", "result": "did not affect"}]}
